Results reported in patent US8530650B2, “2, 5-diamino-substituted pyrido [4, 3-D] pyrimidines as autotaxin inhibitors against cancer” (MERCK PATENT GmbH, priority 2008, dated 2013).

Target: T1, recombinant autotaxin (Homo sapiens, UniProt Q13822)
T1 construct: made in house; host or cells: Hi5 insect cells (baculovirus)
Test: Autotaxin assay (Amplex Red, LPC substrate)
Type: biochemical
Conditions: 75 μM LPC, Amplex Red fluorescence, ten 1:3 dilutions starting at 30 μM
Procedure: Autotaxin activity is measured indirectly by means of Amplex Red Reagent. In this course, Amplex Red is measured as fluorogenic indicator for generated H2O2. Autotaxin converts substrate lysophosphatidylcholine (LPC) to phosphocholine and lysophosphatidylic acid (LPA). After the conversion phosphocholine is reacted with alkaline phosphatase to obtain inorganic phosphate and choline. During the next step choline is oxidized with choline oxidase to yield betaine, whereby H2O2 is generated. H2O2 reacts with Amplex Red Reagent in the presence of peroxidase (Horseradish peroxidase) in an 1:1 stochiometry and yields highly fluorescent resorufin. The generated fluorescence is measured in a reaction-dependent kinetic mode in order to enable subtraction of fluorescence signals of possible other fluorescent compounds that are not part of the reaction from total measured fluorescence.
1.5 μl of a standard solution or of the compounds of the invention are dissolved in 20 mM Hepes pH 7.2 with maximally 7.7% DMSO in individual concentrations. The resulting solution is pre-incubated together with 10 μl (16 ng) of highly purified recombinant autotaxin in a black 384-hole microtiter plate for 30 min at 22° C. Thereafter, the reaction is started through the addition of 5 μL-a-lysophosphatidylcholine (LPC), whereby the final concentration of LPC is 75 μM. The mixture is incubated for 90 min. at 37° C. After the incubation Amplex Red Reagent, peroxidase (Horseradish peroxidase) and choline oxidase are added. The fluorescence is immediately measured at a wavelength of 612 nm with an excitation wavelength of 485 nm in a “Tecan Ultra multimode” fluorescence reader. The activity of autotaxin is indirectly calculated via the amount of detected generated H2O2.
For IC50 analysis, ten serial 1:3 dilutions starting at 30 μM for each compound were run in duplicates.
IC50 values were calculated on normalized data. For normalization, control wells were added to each assay plate and the signal of uninhibited control wells was set to 100%, whereas the signal inhibited by 500 μM C14 LPA, (Avanti Polar Lipids, Cat# 857120P) was set to 0%. Curves were fitted and IC50 values calculated by the following model using proprietary analysis software: Y=Bottom+(100−Bottom)/(1+10^((LogIC50−X)*HillSlope))
Where X is the logarithm of concentration. Y is the response; Y starts at Bottom and goes to Top with a sigmoid shape.
Protein: Recombinant autotaxin (baculoviral Hi5 expression)
Substrate: L-a-lysophosphatidyl choline (chicken egg); Avanti Polar Lipids #830071 P
Standard: C14 LPA, Avanti Polar Lipids, Cat# 857120P
Detection Reagent Amplex Red Reagent; Invitrogen #A12222; dissolved in 1.923 ml of DMSO peroxidase Type VI-A (horseradish), Sigma #P6782; dissolved in 7.45 ml of test buffer, Choline Oxidase; Sigma #C5896; dissolved in 2.47 ml test buffer
Detection Reagent Mix: 1:100 dilution of Amplex Red Regent in test buffer
Test buffer: 200 mM Tris-HCl, Merck, Cat # 1.08219, pH 7.9; 0.1% BSA, lipid free, Roche Cat#775835

Row | Compound | IC50
1 | Clc1ccccc1CNc1ncc2c(NCCc3ccncc3)nccc2n1 [Compound 148, N2-(2-Chloro-benzyl)-N5-(2-pyridin-4-yl-ethyl)-pyrido[4,3-d]pyrimidine-2,5-diamine] | < 30 µM
2 | CC(=O)c1ccc(Nc2nccc3nc(NCc4ccccc4Cl)ncc23)cc1 [Compound 13, 1-{4-[2-(2-Chloro-benzylamino)-pyrido[4,3-d]pyrimidin-5-ylamino]-phenyl}-ethanone] | < 30 µM
3 | O=C(NCc1ccco1)C1CCN(c2nccc3nc(NCc4ccc(Cl)cc4)ncc23)CC1 [Compound 79, 1-[2-(4-Chloro-benzylamino)-pyrido[4,3-d]pyrimidin-5-yl]-piperidine-4-carboxylic acid (furan-2-ylmethyl)-amide] | < 30 µM
4 | Cc1ccc(CNc2ncc3c(Nc4ccc(F)cc4C)nccc3n2)cc1 [Compound 19, N5-(4-Fluoro-2-methyl-phenyl)-N2-(4-methyl-benzyl)-pyrido[4,3-d]pyrimidine-2,5-diamine] | < 30 µM
5 | Cc1ccccc1Nc1nccc2nc(NCc3ccc(Cl)cc3)ncc12 [Compound 43, N2-(4-Chloro-benzyl)-N5-o-tolyl-pyrido[4,3-d]pyrimidine-2,5-diamine] | < 30 µM
6 | COc1ccc(CNc2ncc3c(Nc4ccc(F)c(F)c4)nccc3n2)cc1 [Compound 58, N5-(3,4-Difluoro-phenyl)-N2-(4-methoxy-benzyl)-pyrido[4,3-d]pyrimidine-2,5-diamine] | < 30 µM
7 | COc1ccc(CNc2ncc3c(Nc4ccc5c(c4)OCCO5)nccc3n2)cc1 [Compound 55, N5-(2,3-Dihydro-benzo[1,4]dioxin-6-yl)-N2-(4-methoxy-benzyl)-pyrido[4,3-d]pyrimidine-2,5-diamine] | < 30 µM
8 | Clc1ccccc1CNc1ncc2c(NCc3ccccc3Cl)nccc2n1 [Compound 10, N2,N5-Bis-(2-chloro-benzyl)-pyrido[4,3-d]pyrimidine-2,5-diamine] | < 30 µM
9 | Fc1ccc(Nc2nccc3nc(NCc4ccccc4)ncc23)cc1 [Compound 2, N2-Benzyl-N5-(4-fluoro-phenyl)-pyrido[4,3-d]pyrimidine-2,5-diamine] | < 30 µM
10 | COc1ccc(Nc2nccc3nc(NCc4ccccc4OC)ncc23)cc1 [Compound 35, N2-(2-Methoxy-benzyl)-N5-(4-methoxy-phenyl)-pyrido[4,3-d]pyrimidine-2,5-diamine] | < 30 µM
11 | COc1ccc(CNc2ncc3c(Nc4ccc5c(c4)OCO5)nccc3n2)cc1 [Compound 53, N5-Benzo[1,3]dioxol-5-yl-N2-(4-methoxy-benzyl)-pyrido[4,3-d]pyrimidine-2,5-diamine] | < 30 µM
12 | O=C(Nc1cccnc1)C1CCN(c2nccc3nc(NCc4ccc(Cl)cc4)ncc23)CC1 [Compound 78, 1-[2-(4-Chloro-benzylamino)-pyrido[4,3-d]pyrimidin-5-yl]-piperidine-4-carboxylic acid pyridin-3-ylamide] | < 5 µM
13 | Fc1ccc(CNc2ncc3c(Nc4ccc(F)cc4F)nccc3n2)cc1 [Compound 25, N5-(2,4-Difluoro-phenyl)-N2-(4-fluoro-benzyl)-pyrido[4,3-d]pyrimidine-2,5-diamine] | < 30 µM
14 | CC(C)OCCCNc1nccc2nc(NCc3ccccc3Cl)ncc12 [Compound 15, N2-(2-Chloro-benzyl)-N5-(3-isopropoxy-propyl)-pyrido[4,3-d]pyrimidine-2,5-diamine] | < 30 µM
15 | COc1ccc(Nc2nccc3nc(NCc4ccccc4Cl)ncc23)cc1 [Compound 9, N2-(2-Chloro-benzyl)-N5-(4-methoxy-phenyl)-pyrido[4,3-d]pyrimidine-2,5-diamine] | < 30 µM
16 | c1ccc(CNc2ncc3c(Nc4ccc5c(c4)OCO5)nccc3n2)cc1 [Compound 5, N5-Benzo[1,3]dioxol-5-yl-N2-benzyl-pyrido[4,3-d]pyrimidine-2,5-diamine] | < 30 µM

Further lines, results first:

Row | IC50 | Compound
17 | < 5 µM | Fc1ccc(N2CCN(c3nccc4nc(NCc5ccccc5Cl)ncc34)CC2)cc1 [Compound 106, (2-Chloro-benzyl)-{5-[4-(4-fluoro-phenyl)-piperazin-1-yl]-pyrido[4,3-d]pyrimidin-2-yl}-amine]
18 | < 5 µM | O=C(C1CCCN(c2nccc3nc(NCc4ccccc4Cl)ncc23)C1)N1CCN(c2ccccn2)CC1 (centres unmarked) [Compound 99, {1-[2-(2-Chloro-benzylamino)-pyrido[4,3-d]pyrimidin-5-yl]-piperidin-3-yl}-(4-pyridin-2-yl-piperazin-1-yl)-methanone]
19 | < 5 µM | O=C(N1CCOCC1)N1CCN(c2nccc3nc(NCc4ccccc4Cl)ncc23)CC1 [Compound 116, {4-[2-(2-Chloro-benzylamino)-pyrido[4,3-d]pyrimidin-5-yl]-piperazin-1-yl}-morpholin-4-yl-methanone]
20 | < 30 µM | CCOCCCNC(=O)C1CCN(c2nccc3nc(NCc4ccccc4OC)ncc23)CC1 [Compound 102, 1-[2-(2-Methoxy-benzylamino)-pyrido[4,3-d]pyrimidin-5-yl]-piperidine-4-carboxylic acid (3-ethoxy-propyl)-amide]
21 | < 30 µM | Clc1ccccc1CNc1ncc2c(NCCCN3CCCC3)nccc2n1 [Compound 17, N2-(2-Chloro-benzyl)-N5-(3-pyrrolidin-1-yl-propyl)-pyrido[4,3-d]pyrimidine-2,5-diamine]
22 | < 5 µM | COCCNC(=O)C1CCN(c2nccc3nc(NCc4ccccc4Cl)ncc23)CC1 [Compound 70, 1-[2-(2-Chloro-benzylamino)-pyrido[4,3-d]pyrimidin-5-yl]-piperidine-4-carboxylic acid (2-methoxy-ethyl)-amide]
23 | < 30 µM | CN(C)C(=O)C1CCN(c2nccc3nc(NCc4ccccc4Cl)ncc23)CC1 [Compound 140, 1-[2-(2-Chloro-benzylamino)-pyrido[4,3-d]pyrimidin-5-yl]-piperidine-4-carboxylic acid dimethylamide]
24 | < 30 µM | c1ccc(CNc2ncc3c(N4CCCC4)nccc3n2)cc1 [Compound 1, Benzyl-(5-pyrrolidin-1-yl-pyrido[4,3-d]pyrimidin-2-yl)-amine]
25 | < 30 µM | COc1ccccc1CNc1ncc2c(N3CCCC3)nccc2n1 [Compound 31, (2-Methoxy-benzyl)-(5-pyrrolidin-1-yl-pyrido[4,3-d]pyrimidin-2-yl)-amine]
26 | < 30 µM | Clc1ccccc1CNc1ncc2c(NCCCN3CCCCC3)nccc2n1 [Compound 16, N2-(2-Chloro-benzyl)-N5-(3-piperidin-1-yl-propyl)-pyrido[4,3-d]pyrimidine-2,5-diamine]
27 | < 30 µM | O=C(Cc1ccncc1)N1CCN(c2nccc3nc(NCc4ccccc4Cl)ncc23)CC1 [Compound 138, 1-{4-[2-(2-Chloro-benzylamino)-pyrido[4,3-d]pyrimidin-5-yl]-piperazin-1-yl}-2-pyridin-4-yl-ethanone]
28 | < 30 µM | Cn1cc(CCC(=O)N2CCN(c3nccc4nc(NCc5ccccc5Cl)ncc34)CC2)cn1 [Compound 120, 1-{4-[2-(2-Chloro-benzylamino)-pyrido[4,3-d]pyrimidin-5-yl]-piperazin-1-yl}-3-(1-methyl-1H-pyrazol-4-yl)-propan-1-one]
29 | < 5 µM | CCOCCCNC(=O)C1CCN(c2nccc3nc(NCc4ccccc4Cl)ncc23)CC1 [Compound 98, 1-[2-(2-Chloro-benzylamino)-pyrido[4,3-d]pyrimidin-5-yl]-piperidine-4-carboxylic acid (3-ethoxy-propyl)-amide]
30 | < 10 µM | O=C(NC1CC1)C1CCN(c2nccc3nc(NCc4ccccc4Cl)ncc23)CC1 [Compound 69, 1-[2-(2-Chloro-benzylamino)-pyrido[4,3-d]pyrimidin-5-yl]-piperidine-4-carboxylic acid cyclopropylamide]
31 | < 5 µM | CCOC(=O)N1CCN(c2nccc3nc(NCc4ccccc4Cl)ncc23)CC1 [Compound 114, 4-[2-(2-Chloro-benzylamino)-pyrido[4,3-d]pyrimidin-5-yl]-piperazine-1-carboxylic acid ethyl ester]
32 | < 10 µM | CCN(CC)CCCNC(=O)C1CCN(c2nccc3nc(NCc4ccccc4Cl)ncc23)CC1 [Compound 63, 1-[2-(2-Chloro-benzylamino)-pyrido[4,3-d]pyrimidin-5-yl]-piperidine-4-carboxylic acid (3-diethylamino-propyl)-amide]
